pEC50: −log10 of the molar value. Where two headings read alike, the source gives them in different places.
Test system: fibrosarcoma cell line HT1080
Assay: Ferroptosis screening model (MTT method), Erastin-induced ferroptosis
Type: cell-based, human
Conditions: HT1080, ferroptosis inducer Erastin, 72 h, average of three tests, read-out: EC50
Description: The screening model for ferroptosis mainly used MTT method. First, the fibrosarcoma cell line HT1080 was cultured in a dish, and the cells in the logarithmic growth phase were inoculated into a 96-well plate in a certain number (3000-10000 cells/well), 100 μL per well, and then the plate was put in an 5% CO2 incubator at 37° C., to allow the cells to adhere. After 24 h, 100 μL compound solution at a certain concentration prepared in the designated medium and ferroptosis inducer Erastin (with a final concentration of […]) were added, setting 3 replicate wells for each compound to ensure the accuracy of the results, and a negative control group, a positive control group (Fer-15 μM), a blank control group and a solvent control group were included. After addition of drugs, the plate was placed in an incubator and cultivated for 72 h. On the day of MTT experiment, MTT test solution (5 mg/mL MTT solution dissolved in physiological saline, and stored in the dark at 4° C.) was pre-prepared and 20 μL MTT solution was added to each well, then the plate was put in an incubator and continued to incubate for 2-4 h. After that, 50 μL of 20% SDS solution (dissolved in MiliiQ water, added with 1% concentrated hydrochloric acid) was added to each well and kept in an incubator overnight. On the next day, the absorbance at 570 nm was measured with a microplate reader, to calculate the inhibition rate of drugs on ferroptosis. Generally, the absorbance value of the control group should be in the range of 0.8-1.2 as a normal value.
GraphPadPrism5 software was used to fit the change curve of inhibition rate and calculate the EC50.

| SMILES | pEC50 | pEC50 (Homo sapiens, HT-1080, 72 h) |
| --- | --- | --- |
| CC(c1ccccc1)c1ccc2c(c1)Nc1ccccc1S2 (stereo not drawn) [Compound A1, 2-(1-phenylethyl)-10H-phenothiazine] | 8.52 | – |
| CC(c1cccc(F)c1)c1ccc2c(c1)Nc1ccccc1S2 (stereo not drawn) [Compound A2, 2-(1-(3-fluorophenyl)ethyl)-10H-phenothiazine] | – | 8.22 |
| CC(c1cccc(Cl)c1)c1ccc2c(c1)Nc1ccccc1S2 (stereo not drawn) [Compound A3, 2-(1-(3-chlorophenyl)ethyl)-10H-phenothiazine] | – | 8.30 |
| CC(c1cccc(I)c1)c1ccc2c(c1)Nc1ccccc1S2 (stereo not drawn) [Compound A4, 2-(1-(3-iodophenyl)ethyl)-10H-phenothiazine] | – | 8.30 |
| CC(c1cccc(C#N)c1)c1ccc2c(c1)Nc1ccccc1S2 (stereo not drawn) [Compound A5, 3-(1-(10H-phenothiazin-2-yl)ethyl)benzonitrile] | – | 7.82 |
| CC(c1cccc(O)c1)c1ccc2c(c1)Nc1ccccc1S2 (stereo not drawn) [Compound A6, 3-(1-(10H-phenothiazin-2-yl)ethyl)phenol] | – | 8.30 |
| CC(c1cccc(N)c1)c1ccc2c(c1)Nc1ccccc1S2 (stereo not drawn) [Compound A7, 3-(1-(10H-phenothiazin-2-yl)ethyl)phenylamine] | – | 9.00 |
| Cc1cccc(C(C)c2ccc3c(c2)Nc2ccccc2S3)c1 (stereo not drawn) [Compound A8, 2-(1-(m-methylphenyl)ethyl)-10H-phenothiazine] | – | 8.30 |
| CCc1cccc(C(C)c2ccc3c(c2)Nc2ccccc2S3)c1 (stereo not drawn) [Compound A9, 2-(1-(3-ethylphenyl)ethyl)-10H-phenothiazine] | – | 7.74 |
| CC(C)c1cccc(C(C)c2ccc3c(c2)Nc2ccccc2S3)c1 (stereo not drawn) [Compound A10, 2-(1-(3-isopropylphenyl)ethyl)-10H-phenothiazine] | – | 7.92 |
| CCOc1cccc(C(C)c2ccc3c(c2)Nc2ccccc2S3)c1 (stereo not drawn) [Compound A11, 2-(1-(3-ethoxylphenyl)ethyl)-10H-phenothiazine] | – | 7.72 |
| CC(C)Oc1cccc(C(C)c2ccc3c(c2)Nc2ccccc2S3)c1 (stereo not drawn) [Compound A12, 2-(1-(3-isopropoxylphenyl)ethyl)-10H-phenothiazine] | – | 7.82 |
| CC(c1cccc(OCc2ccccc2)c1)c1ccc2c(c1)Nc1ccccc1S2 (stereo not drawn) [Compound A13, 2-(1-(3-(benzyloxyl)phenyl)ethyl)-10H-phenothiazine] | – | 7.60 |
| CCOC(=O)c1cccc(C(C)c2ccc3c(c2)Nc2ccccc2S3)c1 (stereo not drawn) [Compound A14, 3-(1-(10H-phenothiazin-2-yl)ethyl)benzoic acid ethyl ester] | – | 8.30 |
| CC(c1cccc(C(=O)OC(C)(C)C)c1)c1ccc2c(c1)Nc1ccccc1S2 (stereo not drawn) [Compound A15, 3-(1-(10H-phenothiazin-2-yl)ethyl)benzoic acid t-butyl ester] | – | 7.77 |
| CC(c1cccc(NC(=O)OC(C)(C)C)c1)c1ccc2c(c1)Nc1ccccc1S2 (stereo not drawn) [Compound A16, (3-(1-(10H-phenothiazin-2-yl)ethyl)phenyl)carbamic acid t-butyl ester] | – | 7.31 |
| CC(c1cccc(OC(F)(F)F)c1)c1ccc2c(c1)Nc1ccccc1S2 (stereo not drawn) [Compound A17, 2-(1-(3-(trifluoromethoxyl)phenyl)ethyl)-10H-phenothiazine] | – | 7.89 |

| SMILES | pEC50 | pEC50 (Homo sapiens, HT-1080, 72 h) |
| --- | --- | --- |
| CC(c1cccc(-c2ccccc2)c1)c1ccc2c(c1)Nc1ccccc1S2 (stereo not drawn) [Compound A18, 2-(1-([1,1′-diphenyl]-3-yl)ethyl)-10H-phenothiazine] | – | 7.15 |
| CC(c1ccc(F)cc1)c1ccc2c(c1)Nc1ccccc1S2 (stereo not drawn) [Compound A19, 2-(1-(4-fluorophenyl)ethyl)-10H-phenothiazine] | – | 8.22 |
| CC(c1ccc(Cl)cc1)c1ccc2c(c1)Nc1ccccc1S2 (stereo not drawn) [Compound A20, 2-(1-(4-chlorophenyl)ethyl)-10H-phenothiazine] | – | 7.82 |
| CC(c1ccc(C(F)(F)F)cc1)c1ccc2c(c1)Nc1ccccc1S2 (stereo not drawn) [Compound A21, 2-(1-(4-(trifluoromethyl)phenyl)ethyl)-10H-phenothiazine] | – | 8.22 |
| CC(c1ccc(C#N)cc1)c1ccc2c(c1)Nc1ccccc1S2 (stereo not drawn) [Compound A22, 4-(1-(10H-phenothiazin-2-yl)ethyl)benzonitrile] | – | 8.22 |
| CC(c1ccc(OC(F)(F)F)cc1)c1ccc2c(c1)Nc1ccccc1S2 (stereo not drawn) [Compound A23, 2-(1-(4-(trifluoromethoxyl)phenyl)ethyl)-10H-phenothiazine] | – | 7.70 |
| CCc1ccc(C(C)c2ccc3c(c2)Nc2ccccc2S3)cc1 (stereo not drawn) [Compound A24, 2-(1-(4-ethylphenyl)ethyl)-10H-phenothiazine] | – | 7.70 |
| CCCc1ccc(C(C)c2ccc3c(c2)Nc2ccccc2S3)cc1 (stereo not drawn) [Compound A25, 2-(1-(4-propylphenyl)ethyl)-10H-phenothiazine] | – | 7.68 |
| CC(C)c1ccc(C(C)c2ccc3c(c2)Nc2ccccc2S3)cc1 (stereo not drawn) [Compound A26, 2-(1-(4-isopropylphenyl)ethyl)-10H-phenothiazine] | – | 8.22 |
| CCCCc1ccc(C(C)c2ccc3c(c2)Nc2ccccc2S3)cc1 (stereo not drawn) [Compound A27, 2-(1-(4-butylphenyl)ethyl)-10H-phenothiazine] | – | 7.19 |
| CC(C)Cc1ccc(C(C)c2ccc3c(c2)Nc2ccccc2S3)cc1 (stereo not drawn) [Compound A28, 2-(1-(4-isobutylphenyl)ethyl)-10H-phenothiazine] | – | 8.10 |
| CC(c1ccc(C(C)(C)C)cc1)c1ccc2c(c1)Nc1ccccc1S2 (stereo not drawn) [Compound A29, 2-(1-(4-t-butylphenyl)ethyl)-10H-phenothiazine] | – | 8.15 |
| COc1ccc(C(C)c2ccc3c(c2)Nc2ccccc2S3)cc1 (stereo not drawn) [Compound A30, 2-(1-(4-methoxylphenyl)ethyl)-10H-phenothiazine] | – | 8.22 |
| CCOc1ccc(C(C)c2ccc3c(c2)Nc2ccccc2S3)cc1 (stereo not drawn) [Compound A31, 2-(1-(4-ethoxylphenyl)ethyl)-10H-phenothiazine] | – | 7.77 |
| CCCOc1ccc(C(C)c2ccc3c(c2)Nc2ccccc2S3)cc1 (stereo not drawn) [Compound A32, 2-(1-(4-propoxylphenyl)ethyl)-10H-phenothiazine] | – | 7.21 |
| CC(C)Oc1ccc(C(C)c2ccc3c(c2)Nc2ccccc2S3)cc1 (stereo not drawn) [Compound A33, 2-(1-(4-isopropoxylphenyl)ethyl)-10H-phenothiazine] | 7.77 | – |

Further lines, results first:

| pEC50 | pEC50 (Homo sapiens, HT-1080, 72 h) | SMILES |
| --- | --- | --- |
| 7.19 | – | CC(C)Oc1ccc(C(C)c2ccc3c(c2)Nc2ccccc2S3)cc1 (stereo not drawn) [Compound A34, 2-(1-(4-isopropoxylphenyl)ethyl)-10H-phenothiazine] |
| – | 7.85 | CC(c1ccc(OCc2ccccc2)cc1)c1ccc2c(c1)Nc1ccccc1S2 (stereo not drawn) [Compound A35, 2-(1-(4-(benzyloxyl)phenyl)ethyl)-10H-phenothiazine] |
| – | 7.89 | COC(=O)c1ccc(C(C)c2ccc3c(c2)Nc2ccccc2S3)cc1 (stereo not drawn) [Compound A36, 4-(1-(10H-phenothiazin-2-yl)ethyl)benzoic acid methyl ester] |
| – | 6.49 | CC(c1ccc(N(c2ccccc2)c2ccccc2)cc1)c1ccc2c(c1)Nc1ccccc1S2 (stereo not drawn) [Compound A37, 4-(1-(10H-phenothiazin-2-yl)ethyl)-N,N-diphenylphenylamine] |
| – | 7.77 | CC(c1ccc(F)c(F)c1)c1ccc2c(c1)Nc1ccccc1S2 (stereo not drawn) [Compound A39, 2-(1-(3,4-difluorophenyl)ethyl)-10H-phenothiazine] |
| – | 8.30 | CC(c1ccc(F)c(Cl)c1)c1ccc2c(c1)Nc1ccccc1S2 (stereo not drawn) [Compound A40, 2-(1-(3-chloro-4-fluorophenyl)ethyl)-10H-phenothiazine] |
| – | 7.74 | CC(c1ccc2c(c1)Nc1ccccc1S2)c1ccc(F)c(C(F)(F)F)c1 (stereo not drawn) [Compound A41, 2-(1-(4-fluoro-3-(trifluoromethyl)phenyl)ethyl)-10H-phenothiazine] |
| – | 7.80 | CC(c1ccc(Cl)c(Cl)c1)c1ccc2c(c1)Nc1ccccc1S2 (stereo not drawn) [Compound A42, 2-(1-(3,4-dichlorophenyl)ethyl)-10H-phenothiazine] |
| – | 7.77 | CC(c1ccc2c(c1)Nc1ccccc1S2)c1ccc(Cl)c(C(F)(F)F)c1 (stereo not drawn) [Compound A43, 2-(1-(4-chloro-3-(trifluoromethyl)phenyl)ethyl)-10H-phenothiazine] |
| – | 7.72 | CC(c1ccc(Cl)c(F)c1)c1ccc2c(c1)Nc1ccccc1S2 (stereo not drawn) [Compound A44, 2-(1-(4-chloro-3-fluorophenyl)ethyl)-10H-phenothiazine] |
| – | 7.66 | CC(c1ccc(C(F)(F)F)c(Cl)c1)c1ccc2c(c1)Nc1ccccc1S2 (stereo not drawn) [Compound A45, 2-(1-(3-chloro-4-(trifluoromethyl)phenyl)ethyl)-10H-phenothiazine] |
| – | 7.68 | Cc1ccc(C(C)c2ccc3c(c2)Nc2ccccc2S3)cc1C (stereo not drawn) [Compound A46, 2-(1-(3,4-dimethylphenyl)ethyl)-10H-phenothiazine] |
| – | 8.15 | COc1ccc(C(C)c2ccc3c(c2)Nc2ccccc2S3)cc1OC (stereo not drawn) [Compound A47, 2-(1-(3,4-dimethoxylphenyl)ethyl)-10H-phenothiazine] |
| – | 7.66 | COc1cc(C(C)c2ccc3c(c2)Nc2ccccc2S3)ccc1C (stereo not drawn) [Compound A48, 2-(1-(3-methoxyl-4-methylphenyl)ethyl)-10H-phenothiazine] |
| – | 7.72 | COc1ccc(C(C)c2ccc3c(c2)Nc2ccccc2S3)cc1C (stereo not drawn) [Compound A49, 2-(1-(4-methoxyl-3-methylphenyl)ethyl)-10H-phenothiazine] |

Reference: patent US11440909B2, “10H-phenothiazine ferroptosis inhibitor as well as the preparative method and the use thereof” (CHENGDU HENGHAO INVESTMENT CO. LIMITED, priority 2018, dated 2022)
